Like-named read-outs stand apart in the source and are kept apart here.
Experiments:
AChE (electric eel) = AChE (electric eel) (Electrophorus electricus, UniProt O42275); test: biochemical; conditions: for inhibition at 100 µM: read-out: AChE (%) percentage of inhibition
Method: (§1) The in vitro testing of ChEs inhibition was performed according to the modified Ellman’s method. […] The percentage of inhibition activity was defined for all compounds.
(§2) The in vitro testing of ChEs inhibition was performed on 96-well microplate reader, Synergy^TM HT, BioTek, Vinnoski, USA.
(§3) The method originally developed by Ellman was used with slight modifications. The measurement of AChE and BuChE inhibitory activity was performed in a 96-well microplate reader. 170 μL of 0.1 M phosphate buffer (pH 7.0), 20 μL of AChE (electric eel) or BuChE (equine serum) in phosphate solution (2.3 U/mL), 20 μL of the tested compound in methanol and 20 μL of 10 mM (5,5′-dithiobis(2-nitrobenzoic acid), DTNB, Ellman’s Reagent) were mixed and incubated at 37 °C for 15 min.
Then 20 μL of 7.5 mM acetylthiocholine iodide (ATCI)/butyrylthiocholine iodide (BTCI) were added. […] Each measurement was repeated five times (n = 5). There was prepared one set of mixtures as a control (Abscontrol), which contained an equal volume of methanol instead of the tested samples.
(§4) The percentage ability to inhibit AChE and BuChE at the concentration 100 µM was tested for all compounds. The inhibitory rates IR (%) were calculated according to the Equation (1). IR = [1 - (Abssample/Abscontrol)] × 100(1)

BuChE (equine serum) = molecular target: T1, BuChE (equine serum) (Equus caballus, UniProt P81908); test: BuChE inhibition, modified Ellman's method; type: biochemical; conditions: for inhibition at 100 µM / BuChE (%) percentage of inhibition: mean ± SD (n = 5); for IC50: n = 3 per concentration
T1 construct: 20 μL of AChE (electric eel) or BuChE (equine serum) in phosphate solution (2.3 U/mL); from tissue; host or cells: equine serum
T1 sequence (P81908 whole entry): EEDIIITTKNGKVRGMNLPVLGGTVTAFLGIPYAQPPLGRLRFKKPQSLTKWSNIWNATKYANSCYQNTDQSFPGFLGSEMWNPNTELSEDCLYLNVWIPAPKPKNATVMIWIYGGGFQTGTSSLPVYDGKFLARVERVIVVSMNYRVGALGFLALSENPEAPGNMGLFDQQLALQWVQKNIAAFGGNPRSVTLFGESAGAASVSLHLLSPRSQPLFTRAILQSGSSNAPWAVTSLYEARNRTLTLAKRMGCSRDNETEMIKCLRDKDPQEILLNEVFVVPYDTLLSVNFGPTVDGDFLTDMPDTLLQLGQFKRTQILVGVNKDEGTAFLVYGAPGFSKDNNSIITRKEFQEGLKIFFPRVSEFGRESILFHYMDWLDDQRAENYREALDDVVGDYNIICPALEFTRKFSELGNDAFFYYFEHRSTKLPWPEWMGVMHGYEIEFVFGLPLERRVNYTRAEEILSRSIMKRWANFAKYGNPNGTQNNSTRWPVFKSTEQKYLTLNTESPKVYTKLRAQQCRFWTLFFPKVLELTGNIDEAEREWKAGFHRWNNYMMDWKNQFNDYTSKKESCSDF
Method: as §1, §2, §3
Then 20 μL of 7.5 mM acetylthiocholine iodide (ATCI)/butyrylthiocholine iodide (BTCI) were added. […] […] There was prepared one set of mixtures as a control (Abscontrol), which contained an equal volume of methanol instead of the tested samples.
as §4
The values were calculated by non-linear regression of the concentration-response curve using GraphPad Prism 5.0 software, according to the Equation (2):Y = Ymin + (Ymax − Ymin)/(1 + [(X^HillSlope)/(IC50^HillSlope)])(2)

[1] = at 100 µM, read-out: BuChE (%) percentage of inhibition
[2] = read-out: BuChE (%) percentage of inhibition, at 100 µM

AChE (electric eel), sequence (O42275 24-633): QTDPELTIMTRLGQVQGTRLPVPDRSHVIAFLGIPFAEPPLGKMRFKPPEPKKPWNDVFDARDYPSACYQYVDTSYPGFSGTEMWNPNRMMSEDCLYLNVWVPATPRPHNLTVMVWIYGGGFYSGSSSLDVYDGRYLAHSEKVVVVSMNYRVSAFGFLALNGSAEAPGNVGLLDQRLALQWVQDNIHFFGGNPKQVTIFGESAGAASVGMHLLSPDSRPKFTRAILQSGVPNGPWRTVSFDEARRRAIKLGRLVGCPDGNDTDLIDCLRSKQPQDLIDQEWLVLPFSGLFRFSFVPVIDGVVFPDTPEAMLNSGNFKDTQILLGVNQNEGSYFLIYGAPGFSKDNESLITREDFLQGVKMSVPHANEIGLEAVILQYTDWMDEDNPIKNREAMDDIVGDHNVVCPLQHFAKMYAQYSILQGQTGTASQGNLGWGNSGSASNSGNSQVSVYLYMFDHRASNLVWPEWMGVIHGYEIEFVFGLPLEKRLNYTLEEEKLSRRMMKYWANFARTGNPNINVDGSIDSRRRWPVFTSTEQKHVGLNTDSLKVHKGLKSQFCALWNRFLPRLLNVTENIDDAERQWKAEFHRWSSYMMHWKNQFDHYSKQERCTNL

SMILES | IC50 (AChE (electric eel)) | inhibition at 100 µM (AChE (electric eel); at 100 µM, mean ± SD (n = 5)) | inhibition at 100 µM (BuChE (equine serum); [1]) | IC50 (BuChE (equine serum)) | BuChE (%) percentage of inhibition (BuChE (equine serum); at 100 µM) | inhibition at 100 µM (BuChE (equine serum); [2]) | AChE (%) percentage of inhibition (AChE (electric eel); at 100 µM, mean ± SD (n = 5)) | inhibition at 100 µM (AChE (electric eel))
COC(=O)Nc1ccc(C(=O)CCN2CCCCC2)cc1 [Compound 1, 1-(3-{4-[(methoxycarbonyl)amino]phenyl}-3-oxopropyl)piperidin-1-ium chloride] | 12.7 µM | 74.1 ± 0.9% | 10 ± 0.8% | > 100 µM | – | – | – | –
CCOC(=O)Nc1ccc(C(=O)CCN2CCCCC2)cc1 [Compound 2, 1-(3-{4-[(ethoxycarbonyl)amino]phenyl}-3-oxopropyl)piperidin-1-ium chloride] | 8.58 µM | 77.8 ± 0.4% | 15.7 ± 1.9% | > 100 µM | – | – | – | –
CCCOC(=O)Nc1ccc(C(=O)CCN2CCCCC2)cc1 [Compound 3, 1-(3-oxo-3-{4-[(propoxycarbonyl)amino]phenyl}propyl)piperidin-1-ium chloride] | 6.57 µM | 79.4 ± 0.3% | 21 ± 2.5% | > 100 µM | – | – | – | –
CCOC(=O)Nc1ccc(C(=O)CCN2CCOCC2)cc1 [Compound 4, 4-(3-{4-[(ethoxycarbonyl)amino]phenyl}-3-oxopropyl)morpholin-4-ium chloride] | > 100 µM | 16.1 ± 4.2% | 17.8 ± 3.4% | > 100 µM | – | – | – | –
CCCOC(=O)Nc1ccc(C(=O)CCN2CCOCC2)cc1 [Compound 5, 4-(3-oxo-3-{4-[(propoxycarbonyl)amino]phenyl}propyl)morpholin-4-ium chloride] | > 100 µM | 25.9 ± 3.2% | 14.4 ± 2.4% | > 100 µM | – | – | – | –
CCOC(=O)Nc1ccc(C(=O)CCN(CC)CC)cc1 [Compound 6, (3-{4-[(ethoxycarbonyl)amino]phenyl}-3-oxopropyl)diethylazanium chloride] | > 100 µM | 42.2 ± 4.3% | 34.2 ± 2.6% | > 100 µM | – | – | – | –
CCCCN(C)CCC(=O)c1ccc(NC(=O)OC)cc1 [Compound 7, Butyl(3-{4-[(methoxycarbonyl)amino]phenyl}-3-oxopropyl)methylazanium chloride] | > 100 µM | 38 ± 4.2% | 20.4 ± 5.8% | > 100 µM | – | – | – | –
CCCCN(C)CCC(=O)c1ccc(NC(=O)OCC)cc1 [Compound 8, Butyl(3-{4-[(ethoxycarbonyl)amino]phenyl}-3-oxopropyl)methylazanium chloride] | > 100 µM | 23.5 ± 2.2% | 4.7 ± 3% | > 100 µM | – | – | – | –
CCCCN(C)CCC(=O)c1ccc(NC(=O)OCCC)cc1 [Compound 9, Butyl(methyl)(3-oxo-3-{4-[(propoxycarbonyl)amino]phenyl}propyl)azanium chloride] | > 100 µM | 44.5 ± 1.1% | 29 ± 2.9% | > 100 µM | – | – | – | –
CCCCN(CC)CCC(=O)c1ccc(NC(=O)OC)cc1 [Compound 10, Butyl(ethyl)(3-{4-[(methoxycarbonyl)amino]phenyl}-3-oxopropyl)azanium chloride] | > 100 µM | 23.6 ± 2.3% | 43.6 ± 3% | > 100 µM | – | – | – | –
CCCCN(CC)CCC(=O)c1ccc(NC(=O)OCC)cc1.Cl [Compound 11, Butyl(3-{4-[(ethoxycarbonyl)amino]phenyl}-3-oxopropyl)ethylazanium chloride] | – | 24.6 ± 1.9% | – | – | 51.0 ± 2.9% | > 50% | – | –
CCCCN(CC)CCC(=O)c1ccc(NC(=O)OCCC)cc1.Cl [Compound 12, Butyl(ethyl)(3-{4-[(propoxycarbonyl)amino]phenyl}-3-oxopropyl)azanium chloride] | > 100 µM | 38.4 ± 1.3% | – | > 100 µM | 51.1 ± 3.3% | > 50% | – | –
CCCCOC(=O)Nc1ccc(C(=O)CCN(CC)CCCC)cc1 [Compound 13, (3-{4-[(butoxycarbonyl)amino]phenyl}-3-oxopropyl)(butyl)ethylazanium chloride] | > 100 µM | 33.5 ± 3.4% | 48.7 ± 2.6% | > 100 µM | – | – | – | –
CCCN(C)CCC(=O)c1ccc(NC(=O)OC)cc1 [Compound 14, (3-{4-[(methoxycarbonyl)amino]phenyl}-3-oxopropyl)(methyl)propylazanium chloride] | > 100 µM | 42.2 ± 1.3% | 22.3 ± 4.6% | > 100 µM | – | – | – | –
CCCN(C)CCC(=O)c1ccc(NC(=O)OCC)cc1 [Compound 15, (3-{4-[(ethoxycarbonyl)amino]phenyl}-3-oxopropyl)(methyl)propylazanium chloride] | > 100 µM | 45.3 ± 3.4% | 36.8 ± 2.1% | > 100 µM | – | – | – | –
CCCCCN(C)CCC(=O)c1ccc(NC(=O)OCC)cc1.Cl [Compound 16, (3-{4-[(ethoxycarbonyl)amino]phenyl}-3-oxopropyl)(methyl)pentylazanium chloride] | > 100 µM | > 50% | 46.3 ± 2% | > 100 µM | – | – | 50.6 ± 1.8% | –
COc1ccc2c3c1O[C@H]1C[C@@H](O)C=C[C@@]31CCN(C)C2 [Galantamine, reference compound] | – | – | 62.1 ± 1.4% | – | – | – | – | –
CCN(C)C(=O)Oc1cccc([C@H](C)N(C)C)c1 [Rivastigmine, reference compound] | – | – | 72.9 ± 1.5% | – | – | – | – | 54.8 ± 4.4%
